The subject of data set [1] is MCF-7 cells. Kind of data set: MTT cell viability assay. In kind it is cell-based, human. The note with it: for reduction of cell viability: after 24 h and 48 h. On the procedure: The effect of the four naphtho[2,3-b]furan-4,9-dione derivatives on cell viability was evaluated using an MTT assay with MCF-7 cells (human breast adenocarcinoma cell line). […]. It is important to note that some compounds with a naphtho[2,3-b]furan-4,9-dione backbone are known to have anticancer effects and are highly cytotoxic, and other natural naphtho[2,3-b]furan-4,9-dione derivatives, which are found in the lapacho (Tabebuia) tree, are known to have different biological activities, such as antibacterial, antifungal, anti-inflammatory, and antitumor activities.
Bars represent the mean values of three measurements (n = 3). Error bars illustrate the corresponding standard deviations (± SD).
The effect of CK2 inhibitors on the viability of MCF-7 cells was evaluated using an MTT assay. MCF-7 breast cancer cells (kindly provided by the Department of Clinical Radiology of the University Hospital Muenster, Germany) were cultured in RPMI 1640 medium containing GlutaMax (Life Technologies, Darmstadt, Germany) and 10% fetal calf serum. The MTT assay was performed in 96-well plates. Cells were seeded at a density of 1 × 10^5 cells per well, then incubated […] at 37 °C in a humidified atmosphere (5% CO2). After overnight incubation, the seeding medium was removed and replaced with fresh medium containing the inhibitor at 0.01, 0.1, 1, and 10 μM. DMSO at a final concentration of 1% served as a control. Afterward, the MTT reagent (Sigma Aldrich, Darmstadt, Germany) was added at a final concentration of 0.5 mg/mL. After incubation for 2 h at 37 °C, the medium was discarded and 200 µL DMSO was added for the solubilization of the formazan. After mixing, the absorption was determined at 570 nm with a reference wavelength of 630 nm using a microplate reader. CK2 inhibitors were tested in triplicate, and the experiments were repeated three times.
(Formazan colour is commonly taken as a measure of viable cells.)

Data set [2] concerns the target T1, human CK2 holoenzyme (Homo sapiens, UniProt P68400).
T1 construct: made in house; host or cells: Escherichia coli
Kind of data set: biochemical. The note with it: newly synthesized indeno[1,2-b]indoles.

Data set [3] addresses T1, human CK2 holoenzyme. Conditions: recombinant human CK2, compounds published before, cited from earlier work; for Tested pIC50: pIC50 = -logIC50.
[4] abbreviates: Tested IC50, recombinant human CK2.
Setting [5] is: Tested pIC50, recombinant human CK2, pIC50 = -logIC50.
[6] abbreviates: recombinant human CK2, read-out: Tested IC50.
The mark [7] stands for this setting: recombinant human CK2, pIC50 = -logIC50, read-out: Tested pIC50 (converted).

Like-named read-outs stand apart in the source and are kept apart here.

By melting point is commonly meant the temperature, or range, at which the solid turns liquid.

T1 sequence (P68400 whole entry): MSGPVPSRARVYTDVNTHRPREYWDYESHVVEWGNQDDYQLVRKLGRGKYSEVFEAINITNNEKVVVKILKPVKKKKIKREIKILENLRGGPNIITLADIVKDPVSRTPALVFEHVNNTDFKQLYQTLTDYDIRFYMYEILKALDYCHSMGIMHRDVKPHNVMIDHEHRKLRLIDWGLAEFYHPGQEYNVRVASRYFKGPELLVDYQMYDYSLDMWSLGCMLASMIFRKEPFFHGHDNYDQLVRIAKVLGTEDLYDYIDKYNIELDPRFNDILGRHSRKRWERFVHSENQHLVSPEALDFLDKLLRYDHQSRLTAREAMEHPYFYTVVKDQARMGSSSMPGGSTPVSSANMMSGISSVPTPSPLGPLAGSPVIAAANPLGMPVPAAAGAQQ
T1 sequence (P67870 whole entry partner): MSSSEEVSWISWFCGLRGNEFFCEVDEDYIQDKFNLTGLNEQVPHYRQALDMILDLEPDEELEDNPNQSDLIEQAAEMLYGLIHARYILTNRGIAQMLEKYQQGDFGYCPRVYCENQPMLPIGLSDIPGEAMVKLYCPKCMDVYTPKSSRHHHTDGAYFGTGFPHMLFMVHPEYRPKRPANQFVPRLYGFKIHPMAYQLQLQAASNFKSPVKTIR

Take `Cc1oc2c(c1C(=O)NCCC(C)C)C(=O)c1ccccc1C2=O` [compound 00082235, N-isopentyl-2-methyl-4,9-dioxo-4,9-dihydronaphtho[2,3-b]furan-3-carboxamide]: in data set [1] (MCF-7, 10 µM), the “reduction of cell viability” value is given as “more than 90%”.

Take `Cn1c2c(=O)ccc(=O)c2c2c(=O)c3ccccc3c21` [6b]: the IC50 in data set [2] (setting [4]) and in data set [2] (setting [5]) was 1120 nM each time.

With `CC(C)C1CC(=O)c2c3c(n(C(C)C)c2C1)-c1ccccc1C3=O` (centres unmarked) [4y], the “Tested pIC50” value in data set [3] was 6.2150.

In turn, `Cc1cccc2c1C(=O)c1c3c(n(C(C)C)c1-2)CCCC3=O` [4h, 5-isopropyl-1-methyl-5,6,7,8-tetrahydroindeno[1,2-b]indole-9,10-dione] displayed a melting point of 235 °C. Also, the IC50 in data set [2] (setting [5]) amounted to 110 nM.

On to `CC(C)n1c2c(c3c1-c1cc(Br)cc(Br)c1C3=O)C(=O)CCC2` [4w, 1,3-dibromo-5-isopropyl-5,6,7,8-tetrahydroindeno[1,2-b]indole-9,10-dione], for which the melting point was 276 °C. For the same compound, in data set [2] (setting [5]), the IC50 was determined as 110 nM.

Take `COc1ccc2c(=O)c3c4c(=O)ccc(=O)c4n(C(C)C)c3c2c1` [6e]: the IC50 in data set [2] (setting [4]) and in data set [2] (setting [5]) was 4160 nM throughout.

Take `CC(C)n1c2c(c3c1-c1cccc(Br)c1C3=O)C(=O)CCC2` [4j]: the IC50 in data set [2] (setting [5]) was 140 nM.

Turning to `Cc1oc2c(c1C(=O)NCc1cccnc1)C(=O)c1ccccc1C2=O` [compound 37867960, 2-methyl-4,9-dioxo-N-(pyridin-3-ylmethyl)-4,9-dihydronaphtho[2,3-b]furan-3-carboxamide], the “reduction of cell viability” value is “around 90%” in data set [1] (MCF-7, 1 µM) and “more than 90%” in data set [1] (MCF-7, 10 µM).

For the compound `COc1ccccc1CCn1c2c(c3c1-c1ccccc1C3=O)C(=O)CCC2` [4e], the IC50 in data set [3] (read-out: Tested IC50) was 1400 nM. Also, in data set [3], the “Tested pIC50” value was 5.8540.

`CC(C)n1c2c(=O)ccc(=O)c2c2c(=O)c3c(Br)cccc3c21` [6d]: the IC50 in data set [2] (setting [6]) and in data set [2] (setting [7]) was 1350 nM each time.

Regarding `Cc1oc2c(c1C(=O)N1CCOCC1)C(=O)c1ccccc1C2=O` [compound 01236034, 2-methyl-3(morpholine-4-carbonyl)naphto[2,3-b] furan-4,9-dione], the “cell viability reduced to” value in data set [1] (MCF-7, 10 µM, after 48 h) is listed as 60%.

As for `Cc1oc2c(c1C(=O)NCCCn1ccnc1)C(=O)c1ccccc1C2=O` [compound 01893208, 1-(3-(2-methyl-4,9-dioxo-4,9-dihydronaphtho[2,3-b]furan-3-carboxamido)propyl)-1H-imidazol-3-ium], the “reduction of cell viability” value was “around 90%” in data set [1] (MCF-7, 1 µM) and “more than 90%” in data set [1] (MCF-7, 10 µM).

`O=c1ccc(=O)c2c1[nH]c1c3ccccc3c(=O)c12` [6a]: the IC50 in data set [2] (setting [6]) and in data set [2] (setting [7]) was 1780 nM in each case.

Consider `COC(=O)CCCOc1ccc2c(c1)-c1c(c3c(n1C(C)C)CCCC3=O)C2=O` [4r], for which the IC50 in data set [2] (setting [5]) was 520 nM.

Take `CCn1c2c(=O)ccc(=O)c2c2c(=O)c3ccccc3c21` [6c]: in data set [2] (setting [6]), the IC50 was determined as 1580 nM.

As for `COC(=O)COc1ccc2c(c1)-c1c(c3c(n1C(C)C)CCCC3=O)C2=O` [4p], the IC50 in data set [2] (setting [4]) and in data set [2] (setting [5]) was 1520 nM in each case.

Take `Cc1cc(=O)c2c3c(=O)c4ccccc4c3n(C(C)C)c2c1=O` [6g]: in data set [3], the “Tested pIC50” value was 6.3660.

For `O=C1c2ccccc2-c2[nH]c3cccc(O)c3c21` [5a], the IC50 in data set [2] (setting [6]) and in data set [2] (setting [7]) was 2220 nM each time.

In the case of `CC(=O)Oc1ccc2c(c1)-c1c(c3c(n1C(C)C)CCCC3=O)C2=O` [4q], the IC50 in data set [2] (setting [4]) and in data set [2] (setting [5]) was 3210 nM throughout.

Regarding `CC(C)n1c2c(c3c1-c1cccc(C(F)(F)F)c1C3=O)C(=O)CCC2` [4i], the IC50 in data set [2] (setting [5]) worked out at 210 nM.

Consider `CC(C)n1c2c(c3c1-c1cc(OCCCC(=O)O)ccc1C3=O)C(=O)CCC2` [4s], for which, in data set [2] (setting [5]), the IC50 worked out at 1510 nM.

For the compound `COc1cccc2c(=O)c3c4c(=O)ccc(=O)c4n(C(C)C)c3c12` [6f], the figures for the IC50 in data set [2] (setting [6]) and in data set [2] (setting [7]) were 870 nM and 871 nM, respectively.

The record behind these values is paper PMC6982966 (Molecules, 2019).
